Data: patent US4968609A, “Coryneform bacteria carrying recombinant DNA and a process for producing aromatic amino acids using said bacteria” (priority 1984, dated 1990)

What was measured:
[1] = test system: 3-deoxy-D-arabinoheptulonic acid-7-phosphate synthetase (DS) of Brevibacterium lactofermentum AJ 11957; experiment: DS activity of crude enzyme solution with amino acids added, strain AJ 11957; settings: 1 mM each; crude enzyme of AJ 11957; activity with none added = 100%
[2] = test system: 3-deoxy-D-arabinoheptulonic acid-7-phosphate synthetase (DS) of Brevibacterium lactofermentum AJ 12036; experiment: DS activity of crude enzyme solution with amino acids added, strain AJ 12036; settings: 1 mM each; crude enzyme of AJ 12036; activity with none added = 100%
[3] = test system: 3-deoxy-D-arabinoheptulonic acid-7-phosphate synthetase (DS) of Brevibacterium lactofermentum AJ 12181(AJ 12036/pAR-1); experiment: DS activity of crude enzyme solution with amino acids added, strain AJ 12181 (AJ 12036/pAR-1); settings: 1 mM each; crude enzyme of AJ 12181 (AJ 12036/pAR-1); activity with none added = 100%
[4] = test system: 3-deoxy-D-arabinoheptulonic acid-7-phosphate synthetase (DS) of Brevibacterium lactofermentum AJ 12182(AJ 12036/pAR-2); experiment: DS activity of crude enzyme solution with amino acids added, strain AJ 12182 (AJ 12036/pAR-2); settings: 1 mM each; crude enzyme of AJ 12182 (AJ 12036/pAR-2); activity with none added = 100%
[5] = test system: Brevibacterium lactofermentum AJ 12036 transformed with pAR-1 and pAR-2; experiment: Sensitivity of retransformants to m-fluorophenylalanine; type: cell-based; settings: 50 chloramphenicol-resistant retransformants of AJ 12036 with pAR-1 and pAR-2
Experimental: After culturing at 30° C. for 2 weeks, about 25000 colonies resistant to chloramphenicol appeared, which were replicated in minimal medium (which contained 2% of glucose, 1% of ammonium sulfate, 0.3% of urea, 0.1% of KH2 PO4, 0.04% of MgSO4 ·7H2 O, 2 ppm of iron ions, 2 ppm of manganese ions, […] of thiamine hydrochloride, 50 μg/ml of biotin, 500 μg/ml of m-fluorophenylalanine and 10 μg/ml of chloramphenicol, pH 7.0, 1.8% of agar) to obtain 5 strains resistant to chloramphenicol and m-fluorophenylalanine.
In order to confirm that the gene was present on the recombinant plasmid carrying the DNA fragment, Brevibacterium lactofermentum AJ 12036 was again transformed using the plasmids pARl and pAR-2.
Clearly the genes imparting the m-fluorophenylalanine resistance were present on the above-described plasmids.

Structure (SMILES) | Residual Activity When Each Amino Acid Was Added [1] | Residual Activity When Each Amino Acid Was Added [2] | Residual Activity When Each Amino Acid Was Added [3] | Residual Activity When Each Amino Acid Was Added [4] | sensitivity to m-fluorophenylalanine [5]
N[C@@H](Cc1ccccc1)C(=O)O [Phenylalanine, phenylalanine] | 107% | 94% | 112% | 99% | –
N[C@@H](Cc1ccc(O)cc1)C(=O)O [Tyrosine, tyrosine] | – | 51% | 109% | 88% | –
N[C@@H](Cc1cccc(F)c1)C(=O)O [m-fluorophenylalanine] | – | – | – | – | All of the strains demonstrated m-fluorophenylalanine resistance
